From patent publication US20010041669A1, “Prevention of diabetes” (priority 1995, published 2001)

Key:
[1] = tested on: receptor (receptor binding assay) or mouse free fat cell (lipogenesis); experiment: Biological activity relative to human insulin, receptor binding or lipogenesis assays; conditions: for Activity relative to human insulin (= 1.00): either receptor binding or lipogenesis assays
Source text: Metab. Res. 6, 12-16 and Vølund (1978) Biometrics 34, 357-365 or in the receptor binding assay as described by Andersen et al. (1992) J. Biol. Chem. 267, 13681-13686.
Methods of analysing the biological activity (hypoglycaemic effect) of insulins are well know, and include receptor binding assays using whole cells or soluble receptors, the mouse free fat cell assay, euglycaemic pig clamp assay, intravenous rabbit blood glucose assay and the subcutaneous mouse blood glucose assay (Vølund et al. (1991) Diabetic Medicine, 8, 839-847, Brange et al. (1990) Diabetes Care 13, 923-954, Drejer (1992) Diabetes/Metabolism Reviews 8, 259-286)

NOD mice [2] = experiment: Prophylactic effect of daily subcutaneous administration on diabetes and survival in NOD mice (Example 2); assay type: in vivo; conditions: for protection against development of diabetes compared with human insulin: daily s.c., equimolar doses (0.77 mg/kg), NOD mice; for diabetes incidence versus buffer treated animals at 40 weeks of age: s.c. daily 0.77 mg/kg from 5 to 32 weeks of age, after termination of treatment; for diabetes incidence versus buffer treated animals at 31 weeks of age: s.c. daily 0.77 mg/kg from 5 weeks of age, after 26 weeks of treatment, female NOD mice; for mice died of hypoglycaemia during the treatment period: 0.77 mg/kg
Method: Female NOD (non-obese diabetic) mice, 4 weeks old, were obtained from Bommice (Bomholtgård, Ry, Denmark). At the beginning of the experiment there were a total of 30 animals in each of the three groups mentioned below. […] The treatment was continued until the mice were 32 weeks old, at which age treatment was stopped and the mice observed until they were 40 weeks old. Beginning when the mice were 10 weeks old, the urine was tested weekly for the presence of glucose using glucosuria test tape (Tes-Tape, Lilly, Indianapolis, Ind.). If an animal tested positive in the glucose urine test, a blood sample was taken and blood glucose measured using a glucose analyzer. If the blood glucose was 15 mmol/l or higher, the animal was classified as diabetic and then sacrificed.

NOD mice [3] = experiment: Effect on blood glucose level of daily subcutaneous injection in NOD mice (Example 1); assay type: in vivo, mouse; conditions: for effect on blood glucose level: day 7, 6 hours after injection, female NOD mice
Method: Furthermore, 4 of the 5 animals receiving insulin (3.8 mg/kg) died of hypoglycaemia after 3-5 days of treatment and animal number five had to be sacrificed on day seven due to symptoms of hypoglycaemia.

NOD mice [4] = experiment: Daily subcutaneous administration in the initial stage of diabetes in NOD mice (Example 3); assay type: in vivo; conditions: for frequency of diabetes compared to buffer treated animals: s.c. daily 0.77 mg/kg from 10 to 37 weeks of age, effect from 15 weeks until end, female NOD mice; for cases of diabetes after termination of the treatment: treatment stopped at 37 weeks, observed until 39 weeks
Method: Female NOD (non-obese diabetic) mice, 4-5 weeks old, were obtained from the Jackson Laboratory (Bar Harbour, Me.). At the beginning of the experiment, there were a total of 20 animals in each of the three groups mentioned below. […] The treatment was continued until the mice were 37 weeks old, at which age treatment was stopped. The mice were observed until they were 39 weeks old. Beginning when the mice were 10 weeks old, the urine was tested weekly for the presence of glucose using glucosuria test tape (Tes-Tape, Lilly, Indianapolis, Ind.). If an animal tested positive in the glucose urine test, a blood sample was taken and blood glucose measured using a glucose analyzer. If the blood glucose was 15 mmol/l or higher, the animal was classified as diabetic and sacrificed.

C57/BL mice = experiment: Effect of oral administration on blood glucose level in mice (Example 4); assay type: in vivo, mouse; conditions: oral gavage 1 mg, 2 times a week, after 4 weeks of treatment; non-fasted; 15 minutes
Method: After 4 weeks of treatment, the effect on the blood glucose level in non-fasted animals was analyzed. An initial blood sample was taken in order to determine the control blood glucose level. 15-30 minutes later the animals were fed by gavage and the blood glucose level was determined after further 15, 60 and 180 minutes. […] Insulin is a well known growth factor and has a direct mitogenic effect. The consequence of having a high concentration of intact insulin in the gut lumen directly exposing gut epithelium to its effect is not known but could potentially be serious.

Substance | Activity relative to human insulin (= 1.00) [1] | other results
Abu^A2,Abu^A3 human insulin | 0.0041 | 
Ala^A2 human insulin | 0.006 | 
Asn^B12 human insulin | 0.002 | 
Asp^B25 human insulin | 0.001 | cases of diabetes after termination of treatment (NOD mice [2]; 0.77 mg/kg s.c. daily until 32 weeks, observed until 40 weeks): 1 case; protection against development of diabetes compared with human insulin (NOD mice [2]; listed as X38, 0.77 mg/kg): prevented the development of diabetes to the same, or higher degree as insulin did; protection against development of diabetes compared with human insulin (NOD mice [2]; listed as human insulin with a single amino acid substitution in position B25, 0.77 mg/kg): protects as well against diabetes as equimolar doses of human insulin does; diabetes incidence versus buffer treated animals at 40 weeks of age (NOD mice [2]): still highly significantly lower; diabetes incidence versus buffer treated animals at 31 weeks of age (NOD mice [2]): highly significantly (p<0.01) lower; treated animals died (NOD mice [2]; s.c. daily 0.77 mg/kg, 30 animals per group, not statistically different from buffer group): one; hormonally active (relative to human insulin) [1]: less than 0.1%; mice died or displayed hypoglycaemia (NOD mice [3]; s.c. daily 17.3, 5.8 or 0.6 mg/kg, 26 days observation period): None; effect on blood glucose level (NOD mice [3]; s.c. daily 17.3, 5.8 or 0.6 mg/kg): do not affect the blood glucose levels; frequency of diabetes compared to buffer treated animals (NOD mice [4]): reduced the frequency of diabetes to the same, or higher degree as insulin did; treated animals died (NOD mice [4]; s.c. daily 0.77 mg/kg, 20 animals per group): none; cases of diabetes after termination of the treatment (NOD mice [4]): no cases of diabetes occurred
D-Ala^B12 human insulin | 0.007 | 
D-Cys^A6 human insulin | 0.0023 | 
D-Cys^A6,D-Cys^A11 human insulin | 0.00027 | 
D-Cys^A7 human insulin | 0.002 | 
D-Cys^A11 human insulin | 0.007 | 
D-allo Ile^A2 human insulin | 0.002 | 
Glu^B12 human insulin | 0.0004 | 
Gly^A2 human insulin | 0.01 | 
Gly^A2,Gly^A3 human insulin | 0.00014 | 
Gly^B6 human insulin | 0.0005 | 
Leu^A3 human insulin | 0.0018 | 
Leu^A19 human insulin | 0.001 | 
Nle^A2 human insulin | 0.01 | 

Substance | Activity relative to human insulin (= 1.00) [1] | other results
Nle^A3 human insulin | 0.0038 | 
Nva^A3 human insulin | 0.014 | 
Phe^B12 human insulin | 0.002 | 
Pro^A2 human insulin | 0.01 | 
Ser^A6,Ser^A11,des(A8-A10) human insulin | 0.0001 | 
Thr^A2 human insulin | 0.001 | 
Val^A2,Ile^A3 human insulin | 0.021 | 
des (A1-A2) human insulin | 0.0014 | 
des (A1-A3) human insulin | 0.0011 | 
des (B1-B5) human insulin | 0.05 | 
des (B1-B6) human insulin | 0.0004 | 
des (B23-B30) human insulin | 0.001 | 
des (B24-B30) human insulin | 0.002 | 
des (B25-B30) human insulin | 0.06 | 
desA1 human insulin | 0.006 | 
desA21 human insulin | 0.04 | 
human insulin [reference compound] |  | diabetes incidence versus buffer treated animals at 40 weeks of age (NOD mice [2]): still significantly (p<0.05) lower; diabetes incidence versus buffer treated animals at 31 weeks of age (NOD mice [2]): significantly reduced the incidence of diabetes; mice died of hypoglycaemia during the treatment period (NOD mice [2]; s.c. daily 0.77 mg/kg, 30 animals per group): approx. 50%; mice died of hypoglycaemia during the treatment period (NOD mice [2]; s.c. daily 0.77 mg/kg, 30 animals per group, listed as insulin): 50%; blood glucose level immediately after feeding (C57/BL mice): profound immediate reduction in the blood glucose level; effect on blood glucose level (NOD mice [3]; s.c. daily 0.6 mg/kg): marked hypoglycaemic effect; time of death from hypoglycaemia (NOD mice [3]; s.c. daily 3.8 mg/kg, days of treatment): 3 to 5 days; animals died of hypoglycaemia (NOD mice [3]; s.c. daily 3.8 mg/kg, group of 5 NOD mice): 4 of the 5; frequency of diabetes compared to buffer treated animals (NOD mice [4]): reduced the frequency of diabetes; cases of diabetes after termination of the treatment (NOD mice [4]): no cases of diabetes occurred
